The subject of data set [1] is 158N cells. The data set can be described thus: H2-DCFDA assay of ROS levels by flow cytometry. The format is cell-based, Murine. To be noted: Mus musculus, ROS level, mean ± SD, * P < 0.05 vs DMSO; for activity at 50 µM: compound at 50 µM, read-out: H2-DCFDA assay (% of control), C3 (50 µM); for activity at 10 µM: compound at 10 µM, read-out: H2-DCFDA assay (% of control), C1 (10 µM); for activity at 20 µM: compound at 20 µM, read-out: H2-DCFDA assay (% of control), C2 (20 µM). The procedure:
The antiproliferative activities of OSe compounds 2, 3, and 4 were assessed against two oligodendrocyte cell lines, namely, 158 N and 158 JP, by the M.T.T. assay using 7-ketocholesterol as reference control (Supporting info, Supplementary Table S1) ([Vejux et al., 2005]; [Nury et al., 2014]). The redox profile of the compounds was evaluated using the H2-DCFDA assay, and their antiapoptotic potential was also assessed by flow cytometry ([Wilhelm et al., 2009]; [Karlsson et al., 2010]; [Shaaban et al., 2018]). ROS overproduction and O2^•− and were detected with H2-DCFDA assay. Cultured cells were treated with trypsin re-suspended in PBS (10^6 cells/mL) and kept in the dark for half hour at 37 °C with H2-DCFDA at 10 μM and cells were analyzed by flow cytometry. The green fluorescence of 2’,7’- dichlorofluorescein resulting from the oxidation of H2-DCFDA was analyzed by flow cytometry and collected through a 520/10-nm band pass filter. Flomax (Partec) or FlowJo (Tree Star Inc.) software were used for the data analysis.

The next data set in a line: in vitro. The format is cell-based, Murine. To be noted: mouse. Here is the method:
(§1) The antiproliferative activities of OSe compounds 2, 3, and 4 were assessed against two oligodendrocyte cell lines, namely, 158 N and 158 JP, by the M.T.T. assay using 7-ketocholesterol as reference control (Supporting info, Supplementary Table S1) ([Vejux et al., 2005]; [Nury et al., 2014]). The redox profile of the compounds was evaluated using the H2-DCFDA assay, and their antiapoptotic potential was also assessed by flow cytometry ([Wilhelm et al., 2009]; [Karlsson et al., 2010]; [Shaaban et al., 2018]). Murine oligodendrocytes ([…] and 158JP) were seeded at 240,000 cells per 24-well plates and were grown using the Dulbecco's Modified Eagle Medium supplemented with penicillin antibiotics (1% v/v, streptomycin) and fetal bovine serum (5% v/v) and kept at 37 °C in atmosphere containing 5% CO2. The concentration of 7kc and vitamin E, and the time of treatment were chosen based on data obtained on 7kc treated […] cells. Organoselenium compounds were prepared in DMSO and then diluted with DMEM up to 1 mM. The MTT assay was carried out on […] and 158JP cells after one day of incubation with 7kc (50μM)/different concentrations (0, 1, 10, 20, 50 and 100 μM) of the organic selenides. In live cells, the MTT is reduced to formazan by the succinate dehydrogenase mitochondrial enzyme. The microplate reader Tecan Sunrise (Tecan, Lyon, France) was used for the reading of the plates at 570 nm. The IC50 values and the maximum concentrations without toxicity were estimated for each of the compounds from the respective dose-response curves.

Data set [2] deals with 158N cells. The data set can be described thus: in vitro. The format is cell-based, Murine. Particulars: for IC50: mouse, 1 day. Here is the method: as §1
A further data set concerns 158JP cells. Kind of data set: in vitro. It is filed as cell-based, Murine. Particulars: for IC50: mouse, 1 day. The procedure:
as §1

In data set [3] the test system is 158N cells. Kind of data set: Antiapoptotic effect: Sub-G1 peak by flow cytometry, PI staining, 7kc as apoptosis stimulator. The format is cell-based, Murine. To be noted: 158N cells stained with P.I., 7kc (50 μM) 24 hours, compound at 50, 10, 5 and 1 μM. The procedure: Furthermore, the antiapoptotic activities of compounds 2, 3, and 4 were also evaluated by flow cytometry in 158N cells stained with P.I. using 7Kc as apoptosis stimulator and the positive reference (Supporting info, Supplementary Figure S1). […] The N-maleanilic acid 3 amphiphilic characters favor its crossing through the cell membrane and, therefore, its better activity.
The analysis of the cell cycle can reveal a Sub-G1 peak, which is representative of apoptotic cells. Cell cycle analysis was detected on 158N cells stained with Propidium Iodide (PI). Flow cytometric analyses were measured on a Galaxy flow cytometer. Cells were prepared by re-suspension in cold ethanol (80%, −20 °C) for 2 hrs.Cells were then washed withphosphate buffer, and re-suspended in phosphate buffer (300 μL) containing PI (80 μg/mL) and RNase (200 μg/mL) and kept for 1 h at 37°C.PBS 2 mL was then added, and Fluorescence of propidium iodide was recorded using a 590 ± 10 nm band filter. The percentage of cells in different cell cycle phase was manually estimated.
Figure S1. Anti-apoptotic effect of the organoselenium derivative 3 on oligodendrocytes. The anti-apoptotic effect was measured by cytometry using propidium iodide. […]
On the technique in general: Flow cytometry measures light scatter and fluorescence of single cells or particles in a stream.

In general, IC50 refers to the midpoint of a concentration-inhibition curve. `CC(C)CCC[C@@H](C)[C@H]1CC[C@H]2[C@@H]3C(=O)C=C4C[C@@H](O)CC[C@]4(C)[C@H]3CC[C@]12C` [7kc, 7-ketocholesterol, reference compound]: the activity at 50 µM with 158N cells [1] is 48 ± 2%. Also, the concentration for half-maximal inhibition (IC50) at 1 day in the data set “in vitro” (Cytotoxicity assay IC50, 158JP) worked out at 74 µM; in “in vitro” (Cytotoxicity assay IC50, 158N), 37 µM.

Usually melting point stands for the temperature, or range, at which the solid turns liquid. Turning to `Nc1ccc([Se]Cc2ccc(Br)cc2)cc1` [Compound 2, 4-((4-bromobenzyl)selanyl)aniline], the melting point lay in the range of 156 to 158 °C. Further, in the data set on 158N cells [1], the activity at 10 µM was determined as 36 ± 8%, the activity at 20 µM stood at 41 ± 2% and the activity at 50 µM was 48 ± 2%. In addition, the half-maximal inhibitory concentration (IC50) at 1 day in “in vitro” (Cytotoxicity assay IC50, 158JP) is not below 100 µM. Besides, the 50% inhibitory concentration (IC50) at 1 day in the data set “in vitro” (Cytotoxicity assay IC50, 158N) was not below 100 µM. Also, the IC50 in the data set on 158N cells [2] was more than 100 µM. For the same molecule, the IC50 in the data set on 158JP cells was more than 100 µM.

The molecule `O=C(O)C=CC(=O)Nc1ccc([Se]Cc2ccc(Br)cc2)cc1` [Compound 3, 4-((4-((4-bromobenzyl)selanyl)phenyl)amino)-4-oxobut-2-enoic acid] came in with a melting point of 215 to 217 °C. Moreover, in the data set with 158N cells [1], the activity at 10 µM came to 42 ± 10%, the activity at 20 µM stood at 36 ± 20% and the activity at 50 µM worked out at 31 ± 20%. For the same molecule, in the data set on 158N cells [3], the “formation of SubG1 peak (antiapoptotic activity, in words)” value is “lowered, in a concentration-dependent manner, the formation of SubG1 peak”. Besides, 50 µM corresponded to half-maximal inhibition in “in vitro” (Cytotoxicity assay IC50, 158JP) (IC50 at 1 day). This molecule also yielded an IC50 at 1 day in the data set “in vitro” (Cytotoxicity assay IC50, 158N) of 29 µM. In addition, the “cytotoxicity (in words)” value with 158N cells [2] is on record as “moderate-low cytotoxicity”. Besides, the “cytotoxicity (in words)” value with 158JP cells is listed as “moderate-low cytotoxicity”.

For `O=C1C=CC(=Nc2ccc([Se]Cc3ccc(Br)cc3)cc2)O1` [Compound 4], the melting point lay in the range of 185 to 187 °C. Besides, in the data set with 158N cells [1], the activity at 10 µM worked out at 7 ± 4%, the activity at 20 µM turned out to be 8 ± 4% and the activity at 50 µM is 11 ± 4%. The same molecule returned an IC50 at 1 day in “in vitro” (Cytotoxicity assay IC50, 158JP) not below 100 µM. This molecule also gave an IC50 at 1 day in the data set “in vitro” (Cytotoxicity assay IC50, 158N) not below 100 µM. In addition, the IC50 with 158N cells [2] is more than 100 µM. This molecule came in with an IC50 with 158JP cells of more than 100 µM.

Source of the values: PMC9388736, “Unexpected kinetically controlled organoselenium-based isomaleimide: X-ray structure, hirshfeld surface analysis, 3D energy framework approach, and density functional theory calculation” (Frontiers in Chemistry, 2022).
